Earlier results as cited in US20210145841A1, “ENHANCEMENT OF DELIVERY OF LIPOPHILIC ACTIVE AGENTS ACROSS THE BLOOD-BRAIN BARRIER AND METHODS FOR TREATING CENTRAL NERVOUS SYSTEM DISORDERS” (POVIVA CORP., priority 2018, published 2021).

Conditions: in vivo

- human pulmonary uptake: 60%
Compound: CC1=CC[C@H]2C[C@@H]1C2(C)C [α-Pinene, (1S,5S)-2,6,6-Trimethylbicyclo[3.1.1]hept-2-ene]
